Experimental data from patent US20240199564A1, “TRPM8 AGONISTS AS COOLING AGENTS AND FOR THE TREATMENT OF DISEASE” (Concentric Analgesics, Inc., priority 2021, published 2024).
Structures can show the parent of a compound that is named as a salt.

Each compound was assayed against T1, human TRPM8 receptor expressed in transfected 293H cells (Homo sapiens, UniProt Q7Z2W7) (assay: TRPM8 Human Transient Potential Ion Channel Cell Based Agonist Calcium Flux Assay (FLIPR)). Conditions: Ca2+ mobilization, fluorometric detection, 293H cells; response relative to 3 μM icilin; read-out: TRPM8 agonist EC50.
T1 construct: expressed in transfected cells; host or cells: 293H cells
Description: This example discloses results from TRPM8 Human Transient Potential Ion Channel Cell Based Agonist Calcium Flux Assay. Evaluation of the agonist activity of compounds at the human TRPM8 receptor expressed in transfected 293H cells, determined by measuring their effect on cytosolic Ca2+ ion mobilization using a fluorometric detection method.
Protocol: The cells are suspended in DMEM buffer (Invitrogen), then distributed in microplates at a density of 3×10^4 cells/well. The fluorescent probe (Fluo4 Direct, Invitrogen) in HBSS buffer (Invitrogen) complemented with 20 mM Hepes (Invitrogen) (pH 7.4) is then added into each well and equilibrated with the cells for 60 min at 37° C. then 15 min at 22° C. Thereafter, the assay plates are positioned in a microplate reader (CellLux, PerkinElmer) which is used for the addition of the test compound, reference agonist or HBSS buffer (basal control), and the measurements of changes in fluorescence intensity which varies proportionally to the free cytosolic Ca2+ ion concentration. For stimulated control measurements, Icilin at 3 μM is added in separate assay wells. The results are expressed as a percent of the control response to 3 μM icilin. The standard reference agonist is Icilin, which is tested in each experiment at several concentrations to generate a concentration-response curve from which its EC50 value is calculated. (Behrendt, H. J., Germann, T., Gillen, C and Hatt, H. and Jostock, R. (2004), Characterization of the mouse cold-menthol receptor TRPM8 and vanilloid receptor type-1 VR1 using a fluorometric imaging plate reader (FLIPR) assay, Br. J. Pharmacol., 141: 737.)
Data analysis: EC50 values were determined as the concentration of test substance required to produce half-maximal increases in [Ca^2+]. Maximal [Ca^2+] responses were measured as peak fluorescence intensity (FI) minus basal FI, and expressed as percentages of the maximum response to icilin. Data are given as means±s.e.m., unless otherwise stated.
The EC50 values (concentration producing a half-maximal response) and IC50 values (concentration causing a half-maximal inhibition of the control agonist response) were determined by non-linear regression analysis of the concentration-response curves generated with mean replicate values using Hill equation curve fitting:
where Y=response, A=left asymptote of the curve, D=right asymptote of the curve, C=compound concentration, and C50=EC50, and nH=slope factor.

T1 sequence (Q7Z2W7 whole entry): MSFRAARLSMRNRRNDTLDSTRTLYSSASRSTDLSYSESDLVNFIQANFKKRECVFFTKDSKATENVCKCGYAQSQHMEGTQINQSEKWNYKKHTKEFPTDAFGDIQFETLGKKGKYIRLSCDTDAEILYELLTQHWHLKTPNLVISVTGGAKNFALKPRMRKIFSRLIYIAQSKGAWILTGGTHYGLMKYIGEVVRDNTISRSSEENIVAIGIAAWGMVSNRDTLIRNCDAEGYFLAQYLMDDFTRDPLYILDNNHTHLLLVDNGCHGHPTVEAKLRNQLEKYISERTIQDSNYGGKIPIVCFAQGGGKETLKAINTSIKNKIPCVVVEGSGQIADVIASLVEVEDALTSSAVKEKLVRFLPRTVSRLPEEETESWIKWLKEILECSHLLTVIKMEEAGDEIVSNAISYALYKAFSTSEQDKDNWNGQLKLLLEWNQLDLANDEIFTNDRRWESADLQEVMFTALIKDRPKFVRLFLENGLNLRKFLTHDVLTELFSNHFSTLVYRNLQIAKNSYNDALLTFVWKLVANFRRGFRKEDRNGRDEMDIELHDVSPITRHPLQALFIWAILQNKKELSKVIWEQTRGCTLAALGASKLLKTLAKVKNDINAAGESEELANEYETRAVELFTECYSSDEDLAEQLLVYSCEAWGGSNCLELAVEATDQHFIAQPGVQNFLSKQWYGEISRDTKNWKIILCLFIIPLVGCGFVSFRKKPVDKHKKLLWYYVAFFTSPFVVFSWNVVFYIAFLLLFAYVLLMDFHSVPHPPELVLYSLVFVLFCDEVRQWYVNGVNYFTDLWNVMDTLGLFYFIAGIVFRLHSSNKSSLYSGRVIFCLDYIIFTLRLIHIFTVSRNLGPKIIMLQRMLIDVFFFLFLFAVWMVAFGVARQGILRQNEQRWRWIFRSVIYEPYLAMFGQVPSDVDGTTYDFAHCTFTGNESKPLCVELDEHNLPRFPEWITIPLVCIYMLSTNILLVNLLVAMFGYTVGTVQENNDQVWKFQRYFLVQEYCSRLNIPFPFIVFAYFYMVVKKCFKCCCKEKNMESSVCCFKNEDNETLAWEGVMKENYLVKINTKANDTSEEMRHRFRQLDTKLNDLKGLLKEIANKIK

Row | Compound | EC50 [nM]
1 | CC(C)[C@@H]1CC[C@@H](C)C[C@H]1OCC(=O)N(C)Cc1cccc(CN(C)C)c1 [Compound 1, N-(3-((dimethylamino)methyl)benzyl)-2-(((1R,2S,5R)-2-isopropyl-5-methylcyclohexyl)oxy)-N-methylacetamide hydrochloride] | 973
2 | CC(C)[C@@H]1CC[C@@H](C)C[C@H]1OCC(=O)NCc1ccc(CN)cc1 [Compound 2, N-(4-(aminomethyl)benzyl)-2-(((1R,2S,5R)-2-isopropyl-5-methylcyclohexyl)oxy)acetamide hydrochloride] | 3310
3 | CC(C)[C@@H]1CC[C@@H](C)C[C@H]1C(=O)NCc1cccc(N2CCNCC2)c1 [Compound 5, (1R,2S,5R)-2-isopropyl-5-methyl-N-(3-(piperazin-1-yl)benzyl)cyclohexanecarboxamide dihydrochloride] | 220
4 | CC(C)[C@@H]1CC[C@@H](C)C[C@H]1C(=O)NCc1cccc(N2CCN(C(=O)CN)CC2)c1 [Compound 6, (1R,2S,5R)-N-(3-(4-(2-aminoacetyl)piperazin-1-yl)benzyl)-2-isopropyl-5-methylcyclohexanecarboxamide dihydrochloride] | 377
5 | CC(C)[C@@H]1CC[C@@H](C)C[C@H]1C(=O)NCc1ccc(CNC(=O)CN)cc1 [Compound 7, (1R,2S,5R)-N-(4-((2-aminoacetamido)methyl)benzyl)-2-isopropyl-5-methylcyclohexanecarboxamide hydrochloride] | 511
6 | CC(C)[C@@H]1CC[C@@H](C)C[C@H]1C(=O)NCc1ccccc1N1CCN(C(=O)CN)CC1 [Compound 9, (1R,2S,5R)-N-(2-(4-(2-aminoacetyl)piperazin-1-yl)benzyl)-2-isopropyl-5-methylcyclohexanecarboxamide dihydrochloride] | > 10000

More lines, now with the values ahead:

Row | EC50 [nM] | Compound
7 | 170 | CC(C)[C@@H]1CC[C@@H](C)C[C@H]1C(=O)NCc1ccc2c(c1)CCNC2 [Compound 11, (1R,2S,5R)-2-isopropyl-5-methyl-N-((1,2,3,4-tetrahydroisoquinolin-6-yl)methyl)cyclohexanecarboxamide hydrochloride]
8 | 198 | CC(C)[C@@H]1CC[C@@H](C)C[C@H]1C(=O)NCc1ccc(CCN)cc1 [Compound 12, (1R,2S,5R)-N-(4-(2-aminoethyl)benzyl)-2-isopropyl-5-methylcyclohexanecarboxamide hydrochloride]
9 | 153 | CC(N)c1ccc(CNC(=O)[C@@H]2C[C@H](C)CC[C@H]2C(C)C)cc1 (stereo partly drawn) [Compound 13, (1R,2S,5R)-N-(4-(1-aminoethyl)benzyl)-2-isopropyl-5-methylcyclohexanecarboxamide hydrochloride]
10 | 96 | CC(C)[C@@H]1CC[C@@H](C)C[C@H]1C(=O)NCc1ccc(CN)cc1F [Compound 14, (1R,2S,5R)-N-(4-(aminomethyl)-2-fluorobenzyl)-2-isopropyl-5-methylcyclohexanecarboxamide hydrochloride]
11 | 58 | CC(C)[C@@H]1CC[C@@H](C)C[C@H]1C(=O)NCc1cc(CN)ccn1 [Compound 17, (1R,2S,5R)-N-((4-(aminomethyl)pyridin-2-yl)methyl)-2-isopropyl-5-methylcyclohexanecarboxamide hydrochloride]
12 | 207 | CC(C)[C@@H]1CC[C@@H](C)C[C@H]1C(=O)NCc1ccc(COC2CCNCC2)cc1 [Compound 18, (1R,2S,5R)-2-isopropyl-5-methyl-N-(4-((piperidin-4-yloxy)methyl)benzyl)cyclohexanecarboxamide hydrochloride]
13 | 34800 | CC(C)[C@@H]1CC[C@@H](C)C[C@H]1C(=O)NCc1ccc(CN(C)Cc2ccccc2)cc1 [Compound 19, (1R,2S,5R)-N-(4-((benzyl(methyl)amino)methyl)benzyl)-2-isopropyl-5-methylcyclohexanecarboxamide hydrochloride]
14 | 150 | CC(C)[C@@H]1CC[C@@H](C)C[C@H]1C(=O)NCc1ccc(CN2CCCC2)cc1 [Compound 20, (1R,2S,5R)-2-isopropyl-5-methyl-N-(4-(pyrrolidin-1-ylmethyl)benzyl)cyclohexanecarboxamide hydrochloride]
